Columns and labels:
Type in all cases: in vivo
Kochia (Kochia scoparia) [1] = assay: Test A preemergence; settings: Bassia scoparia, pre-emergence, 240 h, Preemergence; for pest or weed control at 31 g/ha: 31 g ai/ha, 0 to 100 scale where 0 is no effect and 100 is complete control, read-out: Kochia plant response rating; for pest or weed control at 125 g/ha: 125 g ai/ha, 0 to 100 scale (0 no effect, 100 complete control), read-out: Plant response rating, Kochia
Summary of the method: (§1)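 Seeds sprayed preemergence with a directed soil spray, or plants at 2 to 10 cm height and one- to two-leaf stage sprayed postemergence, with test chemicals in a non-phytotoxic solvent mixture containing surfactant, in loam soil–sand blend. Injury rated visually against untreated controls after about 10 d in greenhouse, 0 (no effect) to 100 (complete control).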

[2] = test system: barnyardgrass (Echinochloa crus-galli); assay: Test A preemergence; settings: Echinochloa crus-galli, pre-emergence, 240 h, Preemergence; for pest or weed control at 31 g/ha: 31 g ai/ha, 0 to 100 scale where 0 is no effect and 100 is complete control, read-out: Barnyardgrass plant response rating; for pest or weed control at 125 g/ha: 125 g ai/ha, 0 to 100 scale (0 no effect, 100 complete control), read-out: Plant response rating, Barnyardgrass
Summary of the method: as §1

[3] = test system: giant foxtail (Setaria faberii); assay: Test A preemergence; settings: Setaria faberi, pre-emergence, 240 h, Preemergence; for pest or weed control at 31 g/ha: 31 g ai/ha, 0 to 100 scale where 0 is no effect and 100 is complete control, read-out: Foxtail, Giant plant response rating; for pest or weed control at 125 g/ha: 125 g ai/ha, 0 to 100 scale (0 no effect, 100 complete control), read-out: Plant response rating, Foxtail, Giant
Summary of the method: as §1

[4] = test system: pigweed (Amaranthus retroflexus); assay: Test A preemergence; settings: Amaranthus retroflexus, pre-emergence, 240 h, Preemergence; for pest or weed control at 31 g/ha: 31 g ai/ha, 0 to 100 scale where 0 is no effect and 100 is complete control, read-out: Pigweed plant response rating; for pest or weed control at 125 g/ha: 125 g ai/ha, 0 to 100 scale (0 no effect, 100 complete control), read-out: Plant response rating, Pigweed
[5] = test system: ragweed (common ragweed, Ambrosia elatior); assay: Test A preemergence; settings: Ambrosia artemisiifolia, pre-emergence, 240 h, Preemergence; for pest or weed control at 31 g/ha: 31 g ai/ha, 0 to 100 scale where 0 is no effect and 100 is complete control, read-out: Ragweed plant response rating; for pest or weed control at 125 g/ha: 125 g ai/ha, 0 to 100 scale (0 no effect, 100 complete control), read-out: Plant response rating, Ragweed
Summary of the method: as §1

[6] = test system: ryegrass, Italian (Italian ryegrass, Lolium multiflorum); assay: Test A preemergence; settings: Lolium multiflorum, pre-emergence, 240 h, Preemergence; for pest or weed control at 31 g/ha: 31 g ai/ha, 0 to 100 scale where 0 is no effect and 100 is complete control, read-out: Ryegrass, Italian plant response rating; for pest or weed control at 125 g/ha: 125 g ai/ha, 0 to 100 scale (0 no effect, 100 complete control), read-out: Plant response rating, Ryegrass, Italian
Summary of the method: as §1

Kochia (Kochia scoparia) [7] = assay: Test A postemergence; settings: Bassia scoparia, post-emergence, 240 h, Postemergence, read-out: Kochia plant response rating (0 to 100 scale); for pest or weed control at 125 g/ha: 125 g ai/ha, visual rating about 10 d after treatment; for pest or weed control at 31 g/ha: 31 g ai/ha, 0 is no effect, 100 is complete control
Summary of the method: as §1

[8] = test system: barnyardgrass (Echinochloa crus-galli); assay: Test A postemergence; settings: Echinochloa crus-galli, post-emergence, 240 h, Postemergence; for pest or weed control at 125 g/ha: 125 g ai/ha, visual rating about 10 d after treatment, read-out: Barnyardgrass plant response rating (0 to 100 scale, 0 no effect, 100 complete control); for pest or weed control at 31 g/ha: 31 g ai/ha, 0 is no effect, 100 is complete control, read-out: Barnyardgrass plant response rating (0 to 100 scale)
Summary of the method: as §1

[9] = test system: blackgrass (Alopecurus myosuroides); assay: Test A postemergence; settings: Alopecurus myosuroides, post-emergence, 240 h, Postemergence, read-out: Blackgrass plant response rating (0 to 100 scale); for pest or weed control at 125 g/ha: 125 g ai/ha, visual rating about 10 d after treatment; for pest or weed control at 31 g/ha: 31 g ai/ha, 0 is no effect, 100 is complete control
Summary of the method: as §1

corn (Zea mays) = assay: Test A postemergence; settings: Zea mays, post-emergence, 240 h, Postemergence, read-out: Corn plant response rating (0 to 100 scale); for plant injury at 125 g/ha: 125 g ai/ha, visual rating about 10 d after treatment; for plant injury at 31 g/ha: 31 g ai/ha, 0 is no effect, 100 is complete control
Summary of the method: as §1

[10] = test system: giant foxtail (Setaria faberii); assay: Test A postemergence; settings: Setaria faberi, post-emergence, 240 h, Postemergence, read-out: Foxtail, Giant plant response rating (0 to 100 scale); for pest or weed control at 125 g/ha: 125 g ai/ha, visual rating about 10 d after treatment; for pest or weed control at 31 g/ha: 31 g ai/ha, 0 is no effect, 100 is complete control
Summary of the method: as §1

[11] = test system: pigweed (Amaranthus retroflexus); assay: Test A postemergence; settings: Amaranthus retroflexus, post-emergence, 240 h, Postemergence, read-out: Pigweed plant response rating (0 to 100 scale); for pest or weed control at 125 g/ha: 125 g ai/ha, visual rating about 10 d after treatment; for pest or weed control at 31 g/ha: 31 g ai/ha, 0 is no effect, 100 is complete control
Summary of the method: as §1

[12] = test system: ragweed (common ragweed, Ambrosia elatior); assay: Test A postemergence; settings: Ambrosia artemisiifolia, post-emergence, 240 h, Postemergence, read-out: Ragweed plant response rating (0 to 100 scale); for pest or weed control at 125 g/ha: 125 g ai/ha, visual rating about 10 d after treatment; for pest or weed control at 31 g/ha: 31 g ai/ha, 0 is no effect, 100 is complete control
Summary of the method: as §1

[13] = test system: ryegrass, Italian (Italian ryegrass, Lolium multiflorum); assay: Test A postemergence; settings: Lolium multiflorum, post-emergence, 240 h, Postemergence, read-out: Ryegrass, Italian plant response rating (0 to 100 scale); for pest or weed control at 125 g/ha: 125 g ai/ha, visual rating about 10 d after treatment; for pest or weed control at 31 g/ha: 31 g ai/ha, 0 is no effect, 100 is complete control
Summary of the method: as §1

[14] = test system: wheat (Triticum aestivum); assay: Test A postemergence; settings: Triticum aestivum, post-emergence, 240 h, Postemergence, read-out: Wheat plant response rating (0 to 100 scale); for plant injury at 125 g/ha: 125 g ai/ha, visual rating about 10 d after treatment; for plant injury at 31 g/ha: 31 g ai/ha, 0 is no effect, 100 is complete control
Summary of the method: as §1

[15] = test system: barnyardgrass (Echinochloa crus-galli); assay: Test B flooded paddy test; settings: Echinochloa crus-galli, 360 h, Flood, 250 g ai/ha; visually evaluated after 13 to 15 d; read-out: Plant response rating, Barnyardgrass (0 to 100 scale where 0 is no effect and 100 is complete control)
Summary of the method: (§2)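 Evaluation by eye, against controls, occurred 13–15 d post-treatment in a greenhouse, using a 0 (no effect) to 100 (complete control) scale. Application was into the paddy water, 3 cm deep over the soil, on 2-leaf plants.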

[16] = test system: ducksalad (Heteranthera limosa); assay: Test B flooded paddy test; settings: Heteranthera limosa, 360 h, Flood, 250 g ai/ha; visually evaluated after 13 to 15 d; read-out: Plant response rating, Ducksalad (0 to 100 scale where 0 is no effect and 100 is complete control)
Summary of the method: as §2

rice (Oryra sativa) = assay: Test B flooded paddy test; settings: Oryza sativa, 360 h, Flood, 250 g ai/ha; visually evaluated after 13 to 15 d; read-out: Plant response rating, Rice (0 to 100 scale where 0 is no effect and 100 is complete control)
Summary of the method: as §2

[17] = test system: sedge, umbrella (small-flower umbrella sedge, Cyperus difformis); assay: Test B flooded paddy test; settings: Cyperus difformis, 360 h, Flood, 250 g ai/ha; visually evaluated after 13 to 15 d; read-out: Plant response rating, Sedge, Umbrella (0 to 100 scale where 0 is no effect and 100 is complete control)
Summary of the method: as §2

SMILES | pest or weed control at 31 g/ha (Kochia (Kochia scoparia) [1]) | pest or weed control at 125 g/ha (Kochia (Kochia scoparia) [1]) | pest or weed control at 31 g/ha [2] | pest or weed control at 125 g/ha [2] | pest or weed control at 31 g/ha [3] | pest or weed control at 125 g/ha [3] | pest or weed control at 31 g/ha [4] | pest or weed control at 125 g/ha [4] | pest or weed control at 31 g/ha [5] | pest or weed control at 125 g/ha [5] | pest or weed control at 31 g/ha [6] | pest or weed control at 125 g/ha [6] | pest or weed control at 125 g/ha (Kochia (Kochia scoparia) [7]) | pest or weed control at 31 g/ha (Kochia (Kochia scoparia) [7]) | pest or weed control at 125 g/ha [8] | pest or weed control at 31 g/ha [8] | pest or weed control at 125 g/ha [9] | pest or weed control at 31 g/ha [9] | plant injury at 125 g/ha (corn (Zea mays)) | plant injury at 31 g/ha (corn (Zea mays)) | further results
COc1ccc([C@H]2CNC(=O)[C@@H]2C(=O)Nc2cccc(F)c2F)cc1 [Compound 1341] | 30% | 0% | 0% | 60% | 10% | 70% | 0% | 0% | 20% | 0% | 0% | 0% | 0% | 0% | 90% | 40% | 0% | 0% | 0% | 0% | pest or weed control at 125 g/ha [10]: 0%; pest or weed control at 31 g/ha [10]: 0%; pest or weed control at 125 g/ha [11]: 0%; pest or weed control at 31 g/ha [11]: 0%; pest or weed control at 125 g/ha [12]: 0%; pest or weed control at 31 g/ha [12]: 0%; pest or weed control at 125 g/ha [13]: 0%; pest or weed control at 31 g/ha [13]: 0%; plant injury at 125 g/ha [14]: 0%; plant injury at 31 g/ha [14]: 0%; pest or weed control at 250 g/ha [15]: 30%; pest or weed control at 250 g/ha [16]: 90%; pest or weed control at 250 g/ha (rice (Oryra sativa)): 0%; pest or weed control at 250 g/ha [17]: 0%
COc1ccc([C@H]2CN(C)C(=O)[C@@H]2C(=O)Nc2cccc(F)c2F)cc1 [Compound 1343] | 0% | 40% | 90% | 90% | 100% | 100% | 0% | 30% | 90% | 0% | 0% | 30% | 50% | 0% | 90% | 60% | 0% | 0% | 0% | 0% | pest or weed control at 125 g/ha [10]: 90%; pest or weed control at 31 g/ha [10]: 60%; pest or weed control at 125 g/ha [11]: 0%; pest or weed control at 31 g/ha [11]: 0%; pest or weed control at 125 g/ha [12]: 30%; pest or weed control at 31 g/ha [12]: 0%; pest or weed control at 125 g/ha [13]: 20%; pest or weed control at 31 g/ha [13]: 0%; plant injury at 125 g/ha [14]: 30%; plant injury at 31 g/ha [14]: 0%; pest or weed control at 250 g/ha [15]: 95%; pest or weed control at 250 g/ha [16]: 98%; pest or weed control at 250 g/ha (rice (Oryra sativa)): 0%; pest or weed control at 250 g/ha [17]: 0%
CN1C[C@H](c2ccc3c(c2)OC(F)(F)O3)[C@@H](C(=O)Nc2ccc(F)nc2F)C1=O [Compound 1350] | 30% | 70% | 90% | 90% | 100% | 100% | 70% | 90% | 50% | 80% | 30% | 30% | 70% | 50% | 90% | 60% | 50% | 0% | 50% | 30% | pest or weed control at 125 g/ha [10]: 90%; pest or weed control at 31 g/ha [10]: 70%; pest or weed control at 125 g/ha [11]: 70%; pest or weed control at 31 g/ha [11]: 30%; pest or weed control at 125 g/ha [12]: 60%; pest or weed control at 31 g/ha [12]: 0%; pest or weed control at 125 g/ha [13]: 20%; pest or weed control at 31 g/ha [13]: 20%; plant injury at 125 g/ha [14]: 50%; plant injury at 31 g/ha [14]: 20%; pest or weed control at 250 g/ha [15]: 90%; pest or weed control at 250 g/ha [16]: 90%; pest or weed control at 250 g/ha (rice (Oryra sativa)): 0%; pest or weed control at 250 g/ha [17]: 0%

Source: patent US12077503B2, “Substituted cyclic amides and their use as herbicides” (FMC CORPORATION, priority 2015, dated 2024)
